Results: patent publication US6969590B2, “Use of a polypeptide for treatment of pruritus in animals” (Zengen, Inc., priority 2001, dated 2005)
“Also recorded” adds a separate entry of the source.

What was measured:
[1] = system: inflammation induced in the hind paw; experiment: Kappa carrageenan-induced hind paw inflammation, spinal cord intact or transected; type: in vivo, BALB/c mice; settings: for inhibition of hind paw inflammation: central administration, spinal cord intact mice
Protocol: Because surgical dissection of trigeminal structures that innervate the ear of the mouse is very difficult, tests to learn whether descending neural pathways are essential to the anti-inflammatory activity of centrally administered α-MSH peptides were performed in mice with inflammation induced in a hind paw. In these experiments, each animal was anesthetized with pentobarbital sodium solution as above. Baseline footpad thickness of both hind paws was measured with a spring-loaded micrometer (Swiss Precision Instruments, Los Angeles, Calif.). Paw thickness was expressed in units of 10^−3 cm; average thickness of unstimulated paws was 171.5×10^−3 cm across shipments of animals. Kappa carrageenan (Sigma) dissolved in saline (0.05%, 20 μl) was injected (28 gauge allergy test syringe) into one footpad, and saline (20 μl) was injected into the other. For the analyses, the increase in thickness of the control saline-injected paw of each animal was subtracted from that of the carrageenan-injected paw, to eliminate the influence of mechanical injury and volume of the injected fluid. To be certain that mice with severed spinal cords can react to anti-inflammatory agents, prednisolone (2.5 mg/mouse (IP injection)) was administered to 10 mice with spinal transection and inflammation induced by carrageenan. Treatment with the locally acting steroid reduced swelling up to 29% (average, relative to saline controls) at 4.5 h. after carrageenan.
However, a standardized crushing of lumbar vertebrae with a hemostat was effective in severing the cord; no deaths were caused by this treatment. […] The experiments were limited to 4.5 h to reduce problems of bowel and bladder dysfunction. Immediately after the 4.5 h measurements all mice were killed with an overdose of sodium pentobarbital.
Because of the size of the experiments and the requirement for several shipments of animals over time, several experiments were performed, each with complete treatment and control groups drawn from the same shipment of mice. Omnibus analysis of variance techniques (Dynastat, Washington, D.C.) were used to test overall differences among group means. Tukey's protected t test was used to compare individual means. Probability values of <0.05 were considered significant.

C. albicans = C. albicans colony forming units (candidacidal activity); type: cell-based
Protocol: C. albicans (1×10^6/ml in HBSS) was incubated in the presence or absence or α-MSH (1-13) or α-MSH (11-13) at concentrations in the range of 10^−15 M to 10^−6 M for 2 hours at 37° C. Cells were then washed in cold distilled water and diluted with HBSS to a concentration of 100 organisms/ml. One-ml aliquots were dispensed on blood agar plates and incubated for 48 hours at 37° C. Organism viability was estimated from the number of colonies formed. In subsequent experiments using familiar procedures we compared activity of α-MSH (4-10), α-MSH (6-13), α-MSH (11-13), ACTH (1-39), (18-39) and fluconazole, the latter an established antifungal agent. Melanocortin peptides and fluconazole were tested in concentrations of 10^−6 M to 10^−4 M. There were at least six replicates for each concentration of peptide.

cAMP = cAMP accumulation in N9 cells; type: cell-based, murine; settings: resting cells and cells incubated with LPS+IFN-γ
Protocol: cAMP accumulation in N9 cells was measured as previously described. Briefly, cells in six-well plates were co-incubated at 37° C. with (1) medium; (2) forskolin (100 μM); (3) LPS (10 ng/mL)+IFN-γ (1 U/mL); (4) α-MSH (1-13) or α-MSH (11-13) (1, 10, 50 μM); (5) LPS+IFN-γ and either α-MSN (1-13) or α-MSH (11-13) (10 μM). Reactions were stopped after 3 min by aspirating supernatants, immediately adding 1 mL ethanol at −20° C. and freezing. cAMP content in the ethanol-soluble fraction was measured using an enzyme immunoassay kit (Amersham).

TNF-α = TNF-α production by activated N9 microglia; type: cell-based, murine; settings: microglia stimulated with LPS+IFN-γ for 24 hr, micromolar concentrations
Protocol: The N9 clone of murine microglial cells was obtained by immortalization of embryonic brain cultures with the 3RV retrovirus carrying an activated v-myconcogene. N9 cells were cultured in T-75-cm^2 culture flasks (Corning, Cambridge, Mass.) and maintained at 37° C. in a humidified incubator under 5% CO2 atmosphere in RPMI 1640 supplemented with 2 mM L-glutamine, 50 U/mL penicillin G, 50 μg/mL streptomycin sulfate (GIBCO-BBL, Paisley, UK), and 10% heat-inactivated fetal bovine serum (FBS, Hyclone Lab, Inc., Logan, Utah) until experiments were performed. Cells were used between the first and the tenth passage.
Sub-confluent microglial cells were washed twice with phosphate-buffered saline (PBS) and incubated with trypsin 0.025% and ethylenediaminetetraacetate (EDTA) 0.02% without calcium and magnesium for 3 min. at 37° C. to detach the cells from the culture flask. Cells were then resuspended in medium and incubated in 24-well tissue-culture plates at a concentration of 2×10^5 cells/mL for 16 h in a humidified incubator (37° C., 5% CO2). Growth medium was removed and cell monolayers were stimulated with 10 ng/mL lipopolysaccharide (LPS, from Escherichia coli 055:B5, Sigma Chemical Co., St. Louis, Mo.) plus 1 U/ml, murine IFN-γ (Sigma). To test effects of melanocortin peptides, concentrations (1, 10, 25, 50 and 100 μM) of α-MSH (1-13), α-MSH (11-13), and ACTH (1-24) (Sigma) were dissolved in medium and added to wells 10 min before treatment with LPS+IFN-γ. […] Viability of cells was assessed by trypan blue exclusion for each experimental condition; it was consistently >98%. […]
TNF-α bioactivity was measured in supernatants of cell cultures by standard cytotoxicity assay using L929 cells and recombinant human TNF-α (Sigma) as standard. […] IL-6 was measured using a commercial murine enzyme-linked immunosorbent assay (ELISA: RPN 2714, Amersham, Little Chalfont, UK).
Effects of melanocortin peptides on cytokine and NO production were evaluated by repeated measures analysis of variance followed by Dunnet's test for specific comparisons. […]

SYSMEHFRWGKPV [α-MSH (1-13)]
inhibition of hind paw inflammation ([1]; 3 h): 57%
inhibition of hind paw inflammation ([1]; 4.5 h): 29%
anti-inflammatory effect after spinal cord transection ([1]; centrally administered): significantly reduced the anti-inflammatory effect
anti-inflammatory effect after spinal cord transection ([1]; given intraperitoneally): significant, although smaller, inhibitory effect later in the period
relative potency in reducing C. albicans viability (C. albicans; 10^−4M melanocortin peptides): the most effective
effect on C. albicans colony forming units (CFU) (C. albicans; 2 hours at 37° C., vs. control): greatly reduced; also recorded: significantly decreased C. albicans colony forming units; also recorded: inhibitory effect
cAMP accumulation (cAMP): increased cAMP accumlation
reduction of production of TNF-α (TNF-α): 43%
